Patent US20240083910A1, “AMIDO-SUBSTITUTED PYRIDYL COMPOUNDS AND METHODS OF USE THEREOF FOR THE TREATMENT OF HERPESVIRUSES” (Merck Sharp & Dohme LLC, priority 2020, published 2024)

Tests used:
[1] = target: T1, Human cytomegalovirus DNA polymerase (Human cytomegalovirus, UniProt P08546); assay: CMV polymerase assay (AlphaLISA); type: biochemical; conditions: HCMV polymerase 0.2 nM; 30 min pre-incubation; 60 min at 37° C.; read-out: CMV (IC50)
T1 construct: made in house; host or cells: SF21 insect cells (baculovirus vector)
Summary of the method: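 Baculovirus-expressed polymerase (HCMV 0.2 nM, VZV 0.4 nM) preincubated 30 min with compound, then reacted 60 min at 37 °C with 1.6 nM DIG-primer/59-mer template and low-nM dNTPs including 0.8 nM biotin-dUTP. Incorporation detected by AlphaLISA; IC50 from a 4-parameter fit normalized to DMSO and pre-quenched controls.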

[2] = target: T2, varicella zoster virus DNA polymerase (Varicella-zoster virus, UniProt P09252); assay: VZV polymerase assay (AlphaLISA); type: biochemical; conditions: VZV polymerase 0.4 nM; 30 min pre-incubation; 60 min at 37° C.
T2 construct: made in house; host or cells: SF21 insect cells (baculovirus vector)
Procedure: Human cytomegalovirus and varicella zoster virus DNA polymerases were expressed via baculovirus vector in SF21 cells and purified. Heterodimeric nucleic acid substrate used in the herpesvirus polymerase reactions was generated by annealing a 59-mer template to a 17-mer digoxigenin-labeled primer. Polymerase (HCMV final concentration of 0.2 nM; VZV final concentration of 0.4 nM) was combined with an inhibitor compound or DMSO in assay buffer (10 mM HEPES, pH 7.5, 25 mM KCl, 25 mM NaCl, 5 mM MgCl2, 5% glycerol, 0.67 mg/ml bovine serum albumin, and 1 mM tris(2-carboxyethyl)phosphine), and this mixture was pre-incubated for 30 minutes at room temperature in 384-well microtiter plates. The polymerization reaction was initiated by the addition of template/primer substrate (final concentration: 1.6 nM), and dNTPs (final concentration: 24 nM dCTP, 24 nMdGTP, 16 nM dATP, 16 nM dTTP, and 0.8 nM biotin-dUTP). After 60 min incubation at 37° C., reactions were terminated with quench buffer (25 mM HEPES pH 7.5, 100 mM NaCl, 0.25% Tween-20, 12 mM EDTA, and 1 mg/ml bovine serum albumin). Incorporation of biotinylated UTP was detected with 2.5-5 ug/ml anti-DIG AlphaLISA acceptor beads and 5-10 ug/ml streptavidin AlphaLISA donor beads (PerkinElmer). Compound effects were normalized to the window defined by the controls (DMSO only and pre-quenched wells) and were fit using a 4-parameter algorithm to report an IC50.

HCMV Strain AD169 = assay: Viral qPCR assay, HCMV; type: cell-based, Human cytomegalovirus; conditions: Human betaherpesvirus 5, AD169, MRC5, 72 h, MRC-5 cells, 0.05-0.1 pfu/cell, growth media or 50% fetal bovine serum, viral genome copies by qPCR, read-out: CMV Cell (EC50)
Summary of the method: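 HCMV AD169 at 0.05-0.1 pfu/cell infected MRC-5 cells, added to 10-point 3-fold compound dilutions, in growth medium or medium with 50% FBS; ~72 h at 37°C. Viral genome copies by TaqMan qPCR against plasmid standard curve, normalized to DMSO and uninfected controls; EC50 from 4-parameter fit.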

VZV = assay: Viral qPCR assay, VZV; type: cell-based, varicella zoster virus; conditions: Human alphaherpesvirus 3, 72 h, MeWo or MRC5 cells, 0.04-0.1 pfu/cell, growth medium, viral genome copies by qPCR
Summary of the method: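 VZV strain Street at 0.04-0.1 pfu/cell infected MeWo or MRC5 cells added to 10-point, 3-fold compound dilutions; ~72 h at 37° C. Viral genome copies by TaqMan qPCR against plasmid standard curve, sometimes normalised to PPIA, scaled between uninfected and DMSO-infected controls; EC50 from 4-parameter fit.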

HSV-1 Strain F = assay: Viral qPCR assay, HSV-1; type: cell-based, Herpes Simplex Virus type 1; conditions: Human alphaherpesvirus 1, 72 h, Vero or MRC5 cells, 0.0005-0.004 pfu/cell, growth medium, viral genome copies by qPCR, read-out: HSV1 Cell (EC50)
Summary of the method: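 HSV-1 strain F at 0.0005–0.004 pfu/cell infected Vero or MRC5 cells, which were added to a 10-point 3-fold compound dilution and cultured ~72 h at 37 °C. Viral genomes in the lysates were quantified by TaqMan qPCR against a plasmid standard curve, in some runs normalized to cellular PPIA. EC50 came from a 4-parameter fit of % effect.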

T2 sequence (P09252 whole entry): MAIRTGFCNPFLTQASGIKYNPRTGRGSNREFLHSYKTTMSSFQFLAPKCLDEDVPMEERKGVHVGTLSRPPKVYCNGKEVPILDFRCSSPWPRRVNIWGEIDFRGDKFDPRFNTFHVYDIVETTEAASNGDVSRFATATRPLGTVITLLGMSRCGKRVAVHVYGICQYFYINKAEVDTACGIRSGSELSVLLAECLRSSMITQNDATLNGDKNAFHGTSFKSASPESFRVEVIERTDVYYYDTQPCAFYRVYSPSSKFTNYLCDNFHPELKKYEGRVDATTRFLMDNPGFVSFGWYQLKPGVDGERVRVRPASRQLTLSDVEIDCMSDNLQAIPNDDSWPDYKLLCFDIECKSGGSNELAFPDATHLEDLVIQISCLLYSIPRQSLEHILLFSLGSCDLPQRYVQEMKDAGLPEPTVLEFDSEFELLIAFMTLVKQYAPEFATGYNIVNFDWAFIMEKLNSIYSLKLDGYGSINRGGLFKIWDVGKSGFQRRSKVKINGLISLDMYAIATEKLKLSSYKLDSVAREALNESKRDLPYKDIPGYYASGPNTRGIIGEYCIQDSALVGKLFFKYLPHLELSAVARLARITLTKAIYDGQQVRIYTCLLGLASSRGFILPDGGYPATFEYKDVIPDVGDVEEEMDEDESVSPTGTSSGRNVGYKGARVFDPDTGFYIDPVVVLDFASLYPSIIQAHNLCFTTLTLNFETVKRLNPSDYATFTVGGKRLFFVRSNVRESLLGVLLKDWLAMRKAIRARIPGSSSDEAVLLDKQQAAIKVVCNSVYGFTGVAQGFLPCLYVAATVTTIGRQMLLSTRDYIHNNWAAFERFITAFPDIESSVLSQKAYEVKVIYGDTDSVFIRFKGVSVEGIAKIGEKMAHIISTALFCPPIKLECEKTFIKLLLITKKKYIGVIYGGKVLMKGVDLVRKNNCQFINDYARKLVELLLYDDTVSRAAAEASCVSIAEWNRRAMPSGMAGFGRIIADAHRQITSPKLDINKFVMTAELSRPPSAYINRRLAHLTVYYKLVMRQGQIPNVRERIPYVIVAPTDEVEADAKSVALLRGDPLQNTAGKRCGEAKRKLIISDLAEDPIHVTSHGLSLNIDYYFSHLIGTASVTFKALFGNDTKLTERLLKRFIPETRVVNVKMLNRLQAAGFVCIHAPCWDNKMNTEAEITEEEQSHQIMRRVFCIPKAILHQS
T1 sequence (P08546 whole entry): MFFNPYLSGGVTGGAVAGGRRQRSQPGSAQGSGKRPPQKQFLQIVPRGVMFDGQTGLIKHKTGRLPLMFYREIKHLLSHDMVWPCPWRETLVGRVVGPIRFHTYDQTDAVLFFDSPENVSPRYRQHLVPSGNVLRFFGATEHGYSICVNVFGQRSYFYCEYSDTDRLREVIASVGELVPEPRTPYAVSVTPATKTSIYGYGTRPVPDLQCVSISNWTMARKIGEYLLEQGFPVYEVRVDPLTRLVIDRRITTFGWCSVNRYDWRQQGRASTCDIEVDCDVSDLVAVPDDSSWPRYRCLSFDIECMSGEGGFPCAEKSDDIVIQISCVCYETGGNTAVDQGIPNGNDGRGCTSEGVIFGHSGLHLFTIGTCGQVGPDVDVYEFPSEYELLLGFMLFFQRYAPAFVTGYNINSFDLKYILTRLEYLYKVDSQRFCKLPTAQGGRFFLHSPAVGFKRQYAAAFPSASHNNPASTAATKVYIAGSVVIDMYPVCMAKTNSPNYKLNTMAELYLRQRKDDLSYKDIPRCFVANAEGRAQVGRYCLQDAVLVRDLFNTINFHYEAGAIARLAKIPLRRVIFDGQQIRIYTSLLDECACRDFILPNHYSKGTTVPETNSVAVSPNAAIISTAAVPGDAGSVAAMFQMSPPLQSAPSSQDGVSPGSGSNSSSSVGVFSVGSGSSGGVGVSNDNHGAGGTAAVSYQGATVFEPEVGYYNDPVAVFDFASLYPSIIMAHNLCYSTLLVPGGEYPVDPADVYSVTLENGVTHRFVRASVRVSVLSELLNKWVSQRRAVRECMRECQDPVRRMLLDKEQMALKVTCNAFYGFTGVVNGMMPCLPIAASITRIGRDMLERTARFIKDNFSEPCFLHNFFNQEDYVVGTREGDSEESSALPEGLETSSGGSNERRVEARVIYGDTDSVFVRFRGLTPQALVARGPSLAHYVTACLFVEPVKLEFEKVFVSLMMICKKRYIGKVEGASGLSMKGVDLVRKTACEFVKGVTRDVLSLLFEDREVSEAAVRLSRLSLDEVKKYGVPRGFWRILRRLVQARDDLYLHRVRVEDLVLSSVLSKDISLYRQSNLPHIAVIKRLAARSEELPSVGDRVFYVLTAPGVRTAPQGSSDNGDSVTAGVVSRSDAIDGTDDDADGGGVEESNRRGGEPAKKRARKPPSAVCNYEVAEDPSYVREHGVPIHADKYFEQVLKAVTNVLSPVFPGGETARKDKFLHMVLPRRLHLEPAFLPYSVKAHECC

| IC50 [1] | IC50 [2] | SMILES | EC50 (HCMV Strain AD169) | EC50 (VZV) | EC50 (HSV-1 Strain F) |
| --- | --- | --- | --- | --- | --- |
| 37.9 nM | 15 nM | COc1nc(C)c(O[C@H]2CCN3C(=O)OC[C@@H]3C2)cc1C(=O)NCc1ccc(Cl)cc1 [Compound 8] | 415 nM | 841 nM | 866 nM |
| 2.95 nM | 0.259 nM | COc1nc(-c2cnn(C(F)F)c2)c(O[C@H]2CCN3C(=O)OC[C@@H]3C2)cc1C(=O)NCc1ccc(C#N)c(F)c1 [Compound 58] | 59.3 nM | 103 nM | 63.4 nM |
